Consider 1 compound from US20230218555A1, “CREATINE, ITS DERIVATIVES, COMPOSITIONS AND METHODS OF USE THEREOF” (priority 2021, published 2023).

What all share (type): in vivo, human
For test [1], the system named is osteoarthritis of multiple joints. Description: Example 18: whole body application. As to the method: A subject with continually worsening very painful osteoarthritis of multiple joints for 15-16 years prepared the following formulation: […]
N-Acetyl Ethyl Creatinate (C15): Water: Propylene glycol: Mineral Oil: Sodium lauryl sulfate […].
After taking a morning shower, the entire 40 ml formulation was applied by themself and their assistants to their entire body, except the scalp. […] The subject was without any sense of pain for 4.5 hours when mild painful discomfort in the neck was sensed. Over the next 3 hours pain in all joints returned to usual substantial levels.

The subject of test [2] is acute pain in the left side of their neck. Briefly: Example 11: acute neck pain. As to conditions: 1.5% in water: propylene glycol 8:2, topical to neck. The text has this: A subject who had shoveled heavy snow all day, throwing the snow mostly to left, upon arising from bed the next morning experienced acute pain in the left side of their neck that intensified as they attempted to move their head in any direction.

Test [3] concerns osteoarthritis of the knees. Briefly: Example 24: osteoarthritis, knees. The text has this:
Several days later, a repeated application of the same procedure gave the same results.

Test [4] has as its system painful right elbow. Description: Example 24: osteoarthritis, elbow. As to the method:
A subject presented with a history of painful right elbow for several weeks. They were provided with a topical solution of C15 8% in WP 82.
A subject with a history of right elbow for several months applied the above same solution to the elbo
On three other occasions, C15 1.5% aqueous solution 1 ml was injected subcutaneously in two lateral sites of the elbow and one site over extensor part of the elbow.

In test [5] the test system is Aphthous Ulcers (Canker Sores). Briefly: Example 20: aphthous ulcers (canker sores), topical. The text has this:
Two eroded painful sites 2-3 mm in diameter on the right side of the tongue worsened over 2 days in a subject. At bedtime of the 2nd day, the subject topically applied C15 3% in water: propylene glycol 8:2.

The structures appear in SMILES notation. Bounds are passed on as bounds.

`CCOC(=O)CN(C)C(N)=NC(C)=O` [Compound C15, N-acetyl ethyl creatinate]: the “extent of pain relief” value in test [1] (40 ml formulation applied to entire body except scalp, person) was “all pain ceased in all previously painful joints”; in test [2] (person) it was “neck pain subsided completely and did not return”; in test [3] (8% in WP 82 on gauze wrapping occluded with plastic wrap, overnight, person), “complete relief of pain”; in test [4] (1.5% aqueous solution 1 ml subcutaneous, three sites of elbow, person), “complete relief of pain”; in test [5] (3% in water: propylene glycol 8:2, topical to tongue), “Complete pain relief”. Also, the “duration without any sense of pain” value in test [1] (whole body application) stood at 4.5 h. In addition, the “time to pain relief” value was “about 5 minutes” in test [1] (whole body application), no more than 2 min in test [2], “within an hour” in test [4] (1.5% subcutaneous) and “within less than a minute” in test [5] (3% topical). Besides, the “duration of pain relief” value in test [3] (8% in WP 82, even with occlusion, person, severe osteoarthritis) lay within 3 to 4 h. Besides, the “duration of complete relief (sleep)” value in test [3] (8% with occlusion overnight) is 8 h. Also, the “diminishment of pain after removal in the morning” value in test [3] (8% with occlusion, person) was 85-90%. For the same compound, in test [3] (8% with occlusion, person), the “duration of diminishment after removal” value lay within 7 to 8 h. In addition, the duration of relief in test [4] (1.5% subcutaneous) fell in the range of 24 to 30 h; in test [4] (8% in WP 82, topical, person) it was 5 to 6 h. For the same compound, the relief of pain result in test [4] (8% in WP 82, topical multiple times, person) is given as “No pain relieve was experienced”; in test [4] (8% in WP 82, topical, person) it was “relieved pain instantaneously completely”. Further, the “clinical sign of lesions next day” value in test [5] (3% topical) is on record as “No clinical sign of the lesions could be detected next day”. Also, the return of pain result in test [5] (3% topical) is “remained pain free throughout the night and did not return”.
